Test results: the supplement of paper PMC10307832

Experiments:
[1] = compound: CN(C)C(=N)NC(=N)N [Metformin] + NC(=O)Nc1cc(-c2cccc(F)c2)sc1C(=O)N[C@H]1CCCNC1 [AZD7762] (partner 0.2 µM); assay: relative viability (nuclei count vs DMSO), 5 days (fraction); higher = more cells survive
Summary of the method: (§1)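 Dosing by pin tool came one day after lung cancer cell lines were seeded in 1536-well plates, using either one drug or a fixed anchor-drug dose plus five library-drug doses (not always all listed) in √10 steps. After 5 days, nuclei were counted on 4× images. Relative viability is treated-well nuclei count divided by vehicle-well nuclei count, and values are medians of duplicate plates.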

[2] = compound: CN(C)C(=N)NC(=N)N [Metformin] + O=C(CCCCCCC(=O)Nc1ccccc1)NO [Vorinostat] (partner 1 µM); assay: as above
Summary of the method: as §1

| Cell Line | relative viability ([1]; first compound 31.62 µM) | relative viability ([1]; first compound 100 µM) | relative viability ([1]; first compound 316.23 µM) | relative viability ([1]; first compound 1000 µM) | relative viability ([2]; first compound 31.62 µM) | relative viability ([2]; first compound 100 µM) | relative viability ([2]; first compound 316.23 µM) | relative viability ([2]; first compound 1000 µM) | relative viability ([1]; first compound 10 µM) | relative viability ([2]; first compound 10 µM) |
| --- | --- | --- | --- | --- | --- | --- | --- | --- | --- | --- |
| 201T | 0.5 | 0.581 | 0.476 | 0.609 | 1.02 | 0.972 | 0.98 | 1.03 | – | – |
| A-427 | 0.717 | 0.771 | 0.623 | 0.633 | 0.863 | 0.827 | 0.819 | 0.776 | 0.634 | 0.848 |
| ABC-1 | 1.03 | 0.986 | 1.1 | 0.909 | 0.953 | 1.1 | 1.08 | 0.332 | 1.24 | – |
| BEN | 1.12 | 0.967 | 0.957 | 0.72 | 0.728 | 0.64 | 0.494 | 0.625 | 1.08 | 0.56 |
| CAL-12T | 0.718 | 0.638 | 0.646 | 0.659 | 0.742 | 0.585 | 0.691 | 0.743 | 0.659 | 0.729 |
| COR-L23 | – | – | – | – | 0.304 | 0.406 | 0.288 | 0.362 | – | 0.312 |
| COR-L 105 | – | – | – | – | 0.807 | 0.895 | 0.848 | 0.495 | – | 0.795 |
| ChaGo-K-1 | 0.956 | 0.938 | 0.849 | 0.862 | 0.777 | 0.751 | 0.667 | 0.723 | 0.788 | 0.663 |
| EKVX | 0.69 | 0.795 | 0.609 | 0.674 | 0.67 | 0.655 | 0.644 | 0.762 | – | – |
| EMC-BAC-2 | 1.26 | 1.17 | 1.22 | 1 | 0.417 | – | 0.492 | 0.37 | 1.14 | 0.474 |
| EPLC-272H | 0.351 | 0.345 | 0.334 | 0.259 | 0.352 | 0.383 | 0.4 | 0.579 | 0.23 | 0.529 |
| H3255 | 0.853 | 0.814 | 0.845 | 0.738 | 0.921 | 0.758 | 0.811 | 0.929 | 0.898 | 0.627 |
| HARA | 0.47 | 0.362 | 0.293 | 0.287 | 0.587 | 0.39 | 0.382 | 0.445 | 0.279 | 0.419 |
| HCC-15 | 1.07 | 1.11 | 1 | 1.27 | 0.849 | 0.959 | 0.77 | 0.95 | – | 0.84 |
| HCC-44 | 1 | 1.01 | 0.994 | 1.02 | 1.02 | 1.09 | 1.06 | 1.03 | – | – |
| HCC-78 | 0.99 | 0.946 | 0.846 | 0.917 | 0.479 | 0.559 | 0.516 | 0.417 | – | – |
| HCC-366 | 0.299 | 0.362 | 0.265 | 0.371 | 0.431 | 0.282 | 0.326 | 0.472 | 0.233 | 0.201 |
| HCC-827 | 0.174 | 0.257 | 0.217 | 0.36 | 0.84 | 1.02 | 0.776 | 0.943 | 0.245 | 0.483 |

| Cell Line | relative viability ([1]; first compound 31.62 µM) | relative viability ([1]; first compound 100 µM) | relative viability ([1]; first compound 316.23 µM) | relative viability ([1]; first compound 1000 µM) | relative viability ([2]; first compound 31.62 µM) | relative viability ([2]; first compound 100 µM) | relative viability ([2]; first compound 316.23 µM) | relative viability ([2]; first compound 1000 µM) | relative viability ([1]; first compound 10 µM) | relative viability ([2]; first compound 10 µM) |
| --- | --- | --- | --- | --- | --- | --- | --- | --- | --- | --- |
| HOP-62 | 0.41 | 0.416 | 0.325 | 0.492 | 0.705 | 0.699 | 0.456 | 0.738 | 0.248 | 0.425 |
| IA-LM | – | – | – | – | 1.04 | 1.03 | 0.901 | 0.962 | – | 1.01 |
| LC-2-ad | 0.885 | 0.906 | 0.811 | 0.87 | 0.64 | 0.657 | 0.596 | 0.803 | – | – |
| LCLC-97TM1 | 0.244 | 0.205 | 0.27 | 0.306 | 0.675 | 0.711 | 0.601 | 0.704 | 0.205 | – |
| LCLC-103H | 0.852 | 0.748 | 0.663 | 0.883 | 0.79 | 0.795 | 0.788 | 0.873 | 0.714 | 0.569 |
| LK-2 | 0.454 | 0.512 | 0.361 | 0.548 | 0.264 | 0.273 | 0.339 | 0.397 | 0.359 | 0.232 |
| LOU-NH91 | 0.668 | 0.716 | 0.681 | 0.718 | 0.852 | 0.839 | 0.925 | 0.833 | 0.743 | 0.86 |
| LU99A | 0.249 | 0.252 | 0.223 | 0.383 | 0.579 | 0.411 | 0.397 | 0.479 | 0.244 | 0.417 |
| LXF-289 | 1.02 | 1.01 | 1.05 | 1.07 | 0.661 | 0.712 | 0.66 | 0.729 | 1.05 | 0.65 |
| NCI-H23 | 0.178 | 0.348 | 0.293 | 0.421 | 0.574 | 0.653 | 0.561 | 0.848 | 0.351 | 0.618 |
| NCI-H322M | 0.641 | 0.649 | 0.464 | 0.566 | 0.861 | 0.945 | 0.865 | 0.702 | 0.569 | 0.946 |
| NCI-H358 | 0.449 | 0.461 | 0.519 | 0.532 | 0.584 | 0.577 | 0.578 | 0.525 | 0.619 | 0.546 |
| NCI-H441 | 0.7 | 1.05 | 0.982 | 1.06 | 0.513 | 0.69 | 0.51 | 0.866 | – | – |
| NCI-H460 | 0.632 | 0.676 | 0.433 | 0.553 | 0.667 | 0.542 | 0.581 | 0.659 | – | – |
| NCI-H520 | – | – | – | – | 0.757 | 0.84 | 0.714 | 0.763 | – | 0.748 |
| NCI-H522 | 0.986 | 0.97 | 0.985 | 1.07 | 1.11 | 0.923 | 0.99 | 1.03 | 1.02 | 1.15 |
| NCI-H596 | 1.13 | 1.3 | 1.08 | 1.23 | 0.854 | 0.674 | 0.596 | 0.784 | 1.18 | 0.691 |
| NCI-H647 | 0.467 | 0.495 | 0.418 | 0.513 | 0.5 | 0.64 | 0.56 | 0.588 | 0.414 | 0.705 |
